Data: patent US10077261B2, “Imidazolin-5-one derivative useful as FASN inhibitors for the treatment of cancer” (Janssen Pharmaceutica NV, priority 2012, dated 2018)
Read-outs that look alike come from different tables or passages of the source.

Biological target: T1, hFASN enzyme (full length) (Homo sapiens, UniProt P49327)
T1 construct: 10 μL hFASN enzyme (full length, 300 ng, purified in house); made in house
Assay: Fatty Acid Synthase (FASN) inhibition scintillation proximity assay
Assay type: biochemical
Details: for IC50: read-out: Human FASN pIC50 (converted)
Protocol: In this assay, inhibition of FASN activity is measured using ^3H-acetyl-CoA and malonyl-CoA as substrates. ^3H-Acetyl CoA is converted to ^3H-palmitate through a series of reactions by the FASN protein, which contains 7 functional domains and carries out 7 enzymatic reactions to ultimately produce ^3H-palmitate. The assay principle is based upon the fact that ^3H-acetyl-CoA is hydrophilic and the end product, ^3H-palmitate is hydrophobic.
10 μL assay buffer (100 mM KH2PO4 pH 7.5, 1 mM DTT) (20 μL in blanks) was added to a 384-well white optiplate plate (Perkin Elmer). 0.9 μL test compound (at concentrations of 30 μM, 10 μM, 3 μM, 1 μM, 0.30 μM, 0.10 μM, 0.03 μM and 0.01 μM)/DMSO and 10 μL hFASN enzyme (full length, 300 ng, purified in house) or 10 μL assay buffer was added to the wells. […] The reaction was stopped by adding 20 μL Streptavidin coupled imaging beads (25 mg/ml). After incubation for 30 minutes at room temperature in the dark, the 384 well plate was centrifuged at 1500 rpm for 3 minutes and was measured after at least 24 hrs by the LEADseeker™, measuring emission using a 610±20 nm pass filter.
where mLC and mHC were the means of the low control wells and high control wells on the plate, after manual exclusion of outliers. A plot of Controlmin versus test compound concentration was fitted to a 4-parameter logistic curve using a non-linear least squares regression method.

[1] = read-out: Human FASN % inhibition @ 10 μM, 10 μM test compound

T1 sequence (P49327 whole entry): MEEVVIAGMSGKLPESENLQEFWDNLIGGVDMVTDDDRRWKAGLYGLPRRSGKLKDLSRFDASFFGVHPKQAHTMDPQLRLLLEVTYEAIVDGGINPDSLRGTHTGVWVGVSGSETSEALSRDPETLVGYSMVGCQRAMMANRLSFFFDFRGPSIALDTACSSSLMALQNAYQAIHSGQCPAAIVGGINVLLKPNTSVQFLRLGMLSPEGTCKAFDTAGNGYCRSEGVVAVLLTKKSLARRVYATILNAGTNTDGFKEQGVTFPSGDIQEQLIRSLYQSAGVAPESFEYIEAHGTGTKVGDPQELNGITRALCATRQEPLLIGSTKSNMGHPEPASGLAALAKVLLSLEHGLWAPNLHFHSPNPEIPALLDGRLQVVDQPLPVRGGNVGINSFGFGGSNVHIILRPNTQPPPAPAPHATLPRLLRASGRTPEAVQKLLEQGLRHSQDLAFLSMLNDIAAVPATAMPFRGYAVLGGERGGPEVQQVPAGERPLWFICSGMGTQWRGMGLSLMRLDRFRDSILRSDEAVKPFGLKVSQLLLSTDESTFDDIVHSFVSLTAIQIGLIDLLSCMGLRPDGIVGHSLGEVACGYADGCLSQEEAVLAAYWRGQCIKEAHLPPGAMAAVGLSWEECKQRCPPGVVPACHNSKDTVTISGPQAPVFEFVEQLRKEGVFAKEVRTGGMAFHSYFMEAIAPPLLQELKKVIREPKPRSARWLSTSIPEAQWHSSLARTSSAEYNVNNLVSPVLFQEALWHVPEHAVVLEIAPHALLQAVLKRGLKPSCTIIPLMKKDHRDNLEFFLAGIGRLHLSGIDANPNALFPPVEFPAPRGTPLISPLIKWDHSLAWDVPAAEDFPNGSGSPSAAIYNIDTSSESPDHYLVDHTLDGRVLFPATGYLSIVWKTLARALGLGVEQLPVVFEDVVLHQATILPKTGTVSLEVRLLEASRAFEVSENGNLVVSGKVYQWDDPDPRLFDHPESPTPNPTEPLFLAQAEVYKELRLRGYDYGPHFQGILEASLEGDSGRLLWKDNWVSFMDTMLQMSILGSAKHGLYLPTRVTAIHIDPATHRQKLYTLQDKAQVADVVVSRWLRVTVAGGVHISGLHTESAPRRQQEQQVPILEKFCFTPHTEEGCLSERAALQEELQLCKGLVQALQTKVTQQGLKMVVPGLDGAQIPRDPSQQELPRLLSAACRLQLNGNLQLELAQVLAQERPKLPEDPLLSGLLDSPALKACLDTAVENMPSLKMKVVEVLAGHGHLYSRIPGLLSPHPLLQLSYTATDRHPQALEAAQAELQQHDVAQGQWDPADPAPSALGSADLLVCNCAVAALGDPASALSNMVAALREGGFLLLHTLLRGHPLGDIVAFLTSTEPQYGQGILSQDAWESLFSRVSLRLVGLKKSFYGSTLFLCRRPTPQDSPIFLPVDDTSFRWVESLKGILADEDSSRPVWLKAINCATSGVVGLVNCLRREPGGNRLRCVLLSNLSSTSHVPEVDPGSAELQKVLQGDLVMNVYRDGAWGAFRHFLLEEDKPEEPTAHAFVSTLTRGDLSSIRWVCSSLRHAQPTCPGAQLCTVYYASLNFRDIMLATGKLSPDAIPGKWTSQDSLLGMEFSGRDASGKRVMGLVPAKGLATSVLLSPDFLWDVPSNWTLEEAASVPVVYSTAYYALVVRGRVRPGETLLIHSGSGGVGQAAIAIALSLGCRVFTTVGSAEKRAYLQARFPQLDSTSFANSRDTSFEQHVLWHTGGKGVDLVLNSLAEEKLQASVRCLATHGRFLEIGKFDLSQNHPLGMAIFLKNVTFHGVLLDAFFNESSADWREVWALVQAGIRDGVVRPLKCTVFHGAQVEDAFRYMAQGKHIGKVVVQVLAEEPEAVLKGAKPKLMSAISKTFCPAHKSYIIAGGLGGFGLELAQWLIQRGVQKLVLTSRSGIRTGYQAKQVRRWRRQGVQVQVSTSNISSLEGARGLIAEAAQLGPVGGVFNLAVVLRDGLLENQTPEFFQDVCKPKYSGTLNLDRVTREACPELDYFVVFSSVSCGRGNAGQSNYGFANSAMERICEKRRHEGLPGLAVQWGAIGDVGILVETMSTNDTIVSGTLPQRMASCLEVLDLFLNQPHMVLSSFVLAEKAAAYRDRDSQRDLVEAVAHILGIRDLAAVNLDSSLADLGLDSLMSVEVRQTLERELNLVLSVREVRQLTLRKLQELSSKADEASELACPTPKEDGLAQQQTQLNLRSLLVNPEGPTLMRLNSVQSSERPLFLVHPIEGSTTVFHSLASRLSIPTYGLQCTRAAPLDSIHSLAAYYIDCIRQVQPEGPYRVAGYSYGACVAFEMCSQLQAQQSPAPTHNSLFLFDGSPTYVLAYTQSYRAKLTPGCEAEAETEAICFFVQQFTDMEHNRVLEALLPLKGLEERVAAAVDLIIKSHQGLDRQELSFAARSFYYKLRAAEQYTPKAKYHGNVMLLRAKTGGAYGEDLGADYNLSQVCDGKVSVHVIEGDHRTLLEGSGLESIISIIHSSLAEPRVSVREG

Structure (SMILES)	inhibition at 10 µM [1]	IC50	inhibition at 10 µM (read-out: Human FASN % inhibition @ 10 μM)
O=C(C1CC1)N1CC[C@@H](CN2C(=O)C3(CCCC3)N=C2c2ccc(-c3ccc(-c4nn[nH]n4)cc3)cc2)C1 [compound 91, 3-{[(3R)-1-(Cycloprropylcarbonyl)pyrrolidin-3-yl]methyl}-2-[4′-(2H-tetrazol-5-yl)biphenyl-4-yl]-1,3-diazaspiro[4.4]non-1-en-4-one]	21.3%	> 10 µM	
NC(=O)CN1CC[C@@H](CN2C(=O)C3(CCN(Cc4ccccc4)CC3)N=C2c2ccc(-c3ccc4occc4c3)cc2)C1 [compound 95, 2-[(3R)-3-({2-[4-(1-Benzofuran-5-yl)phenyl]-8-benzyl-4-oxo-1,3,8-triazaspiro[4.5]dec-1-en-3-yl}methyl)pyrrolidin-1-yl]acetamide]	24.4%	> 10 µM	
O=C(CN1CC[C@@H](CN2C(=O)C3(CCN(Cc4ccccc4)CC3)N=C2c2ccc(-c3ccc4occc4c3)cc2)C1)C1CC1 [compound 96, 2-[4-(1-Benzofuran-5-yl)phenyl]-8-benzyl-3-{[(3R)-1-(2-cyclopropyl-2-oxoethyl)pyrrolidin-3-yl]methyl}-1,3,8-triazaspiro[4.5]dec-1-en-4-one]	71.2%	5.01 µM	
COc1ccccc1-c1ccc(C2=NC3(CC3)C(=O)N2CC2CCN(C(=O)C3CC3)CC2)cc1 [compound 98, 6-{[1-(Cyclopropylcarbonyl)piperidin-4-yl]methyl}-5-(2′-methoxybiphenyl-4-yl)-4,6-diazaspiro[2.4]hept-4-en-7-one]	35.1%	> 10 µM	
O=C(C1CC1)N1CC[C@@H](CN2C(=O)C3(CC3)N=C2c2ccc(-c3ccc(C(F)(F)F)cc3)cc2)C1 [compound 104, 6-{[(3R)-1-(Cyclopropylcarbonyl)pyrrolidin-3-yl]methyl}-5-[4′-(trifluoromethyl)biphenyl-4-yl]-4,6-diazaspiro[2.4]hept-4-en-7-one]	71.7%	3.24 µM	
O=C(C1CC1)N1CCC(CN2C(=O)C3(CC3)N=C2c2ccc(-c3ccc(F)cc3)cc2)CC1 [compound 110, 6-{[1-(Cyclopropylcarbonyl)piperidin-4-yl]methyl}-5-(4′-fluorobiphenyl-4-yl)-diazaspiro[2.4]hept-4-en-7-one]		> 10 µM	32.6%
Cc1cccc(-c2ccc(C3=NC4(CC4)C(=O)N3CC3CCN(C(=O)C4CC4)CC3)cc2)c1 [compound 111, 6-{[1-(Cyclopropylcarbonyl)piperidin-4-yl]methyl}-5-(3′-methylbiphenyl-4-yl)-4,6-diazaspiro[2.4]hept-4-en-7-one]	62.2%	4.37 µM	
N#Cc1cccc(-c2ccc(C3=NC4(CC4)C(=O)N3C[C@@H]3CCN(C(=O)C4CC4)C3)cc2)c1 [compound 123, 4′-(6-{[(3R)-1-(Cyclopropylcarbonyl)pyrrolidin-3-yl]methyl}-7-oxo-4,6-diazaspiro[2.4]hept-4-en-5-yl)biphenyl-3-carbonitrile]	81.5%	1.26 µM	
O=C(C1CC1)N1CC[C@@H](CN2C(=O)C3(CC3)N=C2c2ccc(-c3ccc(OC(F)(F)F)cc3)cc2)C1 [compound 125, 6-{[(3R)-1-(Cyclopropylcarbonyl)pyrrolidin-3-yl]methyl}-5-[4′-(trifluoromethoxy)biphenyl-4-yl]-4,6-diazaspiro[2.4]hept-4-en-7-one]	64.6%	3.98 µM	
CC(C)C(=O)N1CCC2(CC1)N=C(c1ccc(-c3ccc4occc4c3)cc1)N(CC1CN(C(=O)C3CC3)C1)C2=O [compound 129, 2-[4-(1-Benzofuran-5-yl)phenyl]-3-{[1-(cyclopropylcarbonyl)azetidin-3-yl]methyl}-8-(2-methylpropanoyl)-1,3,8-triazaspiro[4.5]dec-1-en-4-one]	90.7%	1.17 µM	
Cn1ncc2cc(-c3ccc(C4=NC5(CCNCC5)C(=O)N4CC4CN(C(=O)C5CC5)C4)cc3)ccc21 [compound 131, 3-{[1-(Cyclopropylcarbonyl)azetidin-3-yl]methyl}-2-[4-(1-methyl-1H-indazol-5-yl)phenyl]-1,3,8-triazaspiro[4.5]dec-1-en-4-one]	52.1%	8.91 µM	

The next lines start with results.

inhibition at 10 µM [1]	IC50	Structure (SMILES)	inhibition at 10 µM (read-out: Human FASN % inhibition @ 10 μM)
58.7%	5.62 µM	Cc1ccc(-c2ccc(C3=NC4(CC4)C(=O)N3CC3CCN(C(=O)C4CC4)CC3)cc2)cc1 [compound 97, 6-{[1-(Cyclopropylcarbonyl)piperidin-4-yl]methyl}-5-(4′-methylbiphenyl-4-yl)-4,6-diazaspiro[2.4]hept-4-en-7-one]	
61.4%	4.68 µM	COc1ccc(-c2ccc(C3=NC4(CC4)C(=O)N3CC3CCN(C(=O)C4CC4)CC3)cc2)cc1 [compound 99]	
10.6%	> 10 µM	O=C(C1CC1)N1CCC(CN2C(=O)C3(CC3)N=C2c2ccc(-c3ccc(C(F)(F)F)cc3)cc2)CC1 [compound 107, 6-{[1-(Cyclopropylcarbonyl)piperidin-4-yl]methyl}-5-[4′-(trifluoromethyl)biphenyl-4-yl]-4,6-diazaspiro[2.4]hept-4-en-7-one]	
83.8%	1.51 µM	O=C(C1CC1)N1CCC(CN2C(=O)C3(CC3)N=C2c2ccc(-c3cccc(O)c3)cc2)CC1 [compound 108, 6-{[1-(Cyclopropylcarbonyl)piperidin-4-yl]methyl}-5-(3′-hydroxybiphenyl-4-yl)-4,6-diazaspiro[2.4]hept-4-en-7-one]	
62.1%	5.13 µM	O=C(C1CC1)N1CCC(CN2C(=O)C3(CC3)N=C2c2ccc(-c3ccc(Cl)cc3)cc2)CC1 [compound 109, 5-(4′-Chlorobiphenyl-4-yl)-6-{[1-(cyclopropylcarbonyl)piperidin-4-yl]methyl}-4,6-diazaspiro[2.4]hept-4-en-7-one]	
74%	3.8 µM	O=C(C1CC1)N1CC(CN2C(=O)C3(CCNCC3)N=C2c2ccc(-c3ccc4occc4c3)cc2)C1 [compound 130, 2-[4-(1-Benzofuran-5-yl)phenyl]-3-{[1-(cyclopropylcarbonyl)azetidin-3-yl]methyl}-1,3,8-triazaspiro[4.5]dec-1-en-4-one]	
83.7%	1.7 µM	O=C(C1CC1)N1CC(CN2C(=O)C3(CCNCC3)N=C2c2ccc(-c3ccc4cnccc4c3)cc2)C1 [compound 132, 3-{[1-(Cyclopropylcarbonyl)azetidin-3-yl]methyl}-2-(4-isoquinolin-6-ylphenyl)-1,3,8-triazaspiro[4.5]dec-1-en-4-one]	
78.9%	2.45 µM	CC(C)C(=O)N1CCC2(CC1)N=C(c1ccc(-c3ccc4c(cnn4C)c3)cc1)N(CC1CN(C(=O)C3CC3)C1)C2=O [compound 135, 3-{[1-(Cyclopropylcarbonyl)azetidin-3-yl]methyl}-2-[4-(1-methyl-1H-indazol-5-yl)phenyl]-8-(2-methylpropanoyl)-1,3,8-triazaspiro[4.5]dec-1-en-4-one]	
77.7%	2.95 µM	CN(C)CC(=O)N1CCC2(CC1)N=C(c1ccc(-c3ccc4c(cnn4C)c3)cc1)N(CC1CN(C(=O)C3CC3)C1)C2=O [compound 136, 3-{[1-(Cyclopropylcarbonyl)azetidin-3-yl]methyl}-8-(N,N-dimethylglycyl)-2-[4-(1-methyl-1H-indazol-5-yl)phenyl]-1,3,8-triazaspiro[4.5]dec-1-en-4-one]	
112%	0.174 µM	CC(C)C(=O)N1CCC2(CC1)N=C(c1ccc(-c3ccc4c(cnn4C)c3)cc1)N(C[C@@H]1CCN(C(=O)C3CC3)C1)C2=O [compound 139, (R)-3-((1-(cyclopropanecarbonyl)pyrrolidin-3-yl)methyl)-8-isobutyryl-2-(4-(1-methyl-1H-indazol-5-yl)phenyl)-1,3,8-triazaspiro[4.5]dec-1-en-4-one]	
114%	0.224 µM	Cn1ncc2cc(-c3ccc(C4=NC5(CCN(C(=O)C6CC6)CC5)C(=O)N4C[C@@H]4CCN(C(=O)C5CC5)C4)cc3)ccc21 [compound 140, 8-(Cyclopropylcarbonyl)-3-{[(3R)-1-(cyclopropylcarbonyl)pyrrolidin-3-yl]methyl}-2-[4-(1-methyl-1H-indazol-5-yl)phenyl]-1,3,8-triazaspiro[4.5]dec-1-en-4-one]	
110%	0.251 µM	CN(C)CC(=O)N1CCC2(CC1)N=C(c1ccc(-c3ccc4c(cnn4C)c3)cc1)N(C[C@@H]1CCN(C(=O)C3CC3)C1)C2=O [compound 141, 3-{[(3R)-1-(Cyclopropylcarbonyl)pyrrolidin-3-yl]methyl}-8-(N,N-dimethylglycyl)-2-[4-(1-methyl-1H-indazol-5-yl)phenyl]-1,3,8-triazaspiro[4.5]dec-1-en-4-one]	
119%	0.0692 µM	CN(C)CC(=O)N1CCC2(CC1)N=C(c1ccc(-c3ccc4cnccc4c3)cc1)N(C[C@@H]1CCN(C(=O)C3CC3)C1)C2=O [compound 142, 3-{[(3R)-1-(Cyclopropylcarbonyl)pyrrolidin-3-yl]methyl}-8-(N,N-dimethylglycyl)-2-(4-isoquinolin-6-ylphenyl)-1,3,8-triazaspiro[4.5]dec-1-en-4-one]	
